Laboratory results taken from patent US20240238236A1, “COMPOSITION FOR REGULATING CARBOHYDRATE METABOLISM, AND METHOD FOR ASSESSING CARBOHYDRATE METABOLISM CONDITIONS OF SUBJECT” (KAGAMI INC., priority 2021, published 2024).

Legend:
Assay type in all cases: in vivo
[1] = test system: carbohydrate metabolism-modified mice (type 1 diabetes model); assay: casual blood glucose measurement; conditions: for increase in casual blood glucose level: 20 mM in drinking water on D-amino acid-free diet, after STZ (2 weeks); for casual blood glucose level: vs water control
Procedure: (§3) After removing the left kidney of C57BL/6(B6) mice (−2 weeks: −2 w), a D-amino acid-eliminated diet (D-amino acid-free diet, D-fd) was provided, and groups administered aqueous solution of 20 mM D-alanine (n=5), 20 mM D-serine (n=5), 20 mM D-proline (n=5), 20 mM D-leucine (n=5) or water (n=6 to 14) in drinking water, and a group given normal diet and water as a control (n=5), were administered streptozotocin (STZ) at 50 mg/kg (0 weeks) to create carbohydrate metabolism-modified model mice, and blood insulin measurement (−1 weeks, 3 weeks), casual blood glucose measurement (−1 weeks, 2 weeks), fasting blood glucose measurement (−1 weeks, 3 weeks) and measurement of insulin and glucagon in pancreatic islets of Langerhans by antibody staining, were conducted as appropriate.

[2] = test system: db/db mice (type 2 diabetes model); assay: casual blood glucose in db/db mice; conditions: 20 mM in drinking water, 5 to 18 weeks, vs control group
[3] = test system: carbohydrate metabolism-modified mice (type 1 diabetes model); assay: fasting blood glucose measurement; conditions: vs water control
Procedure: as §3

[4] = test system: carbohydrate metabolism-modified mice (type 1 diabetes model); assay: insulin tolerance testing (ITT); conditions: before and at 2 weeks after STZ, vs water control; for blood glucose level and insulin resistance in insulin tolerance testing (ITT): 20 mM in drinking water
Procedure: (§1) After removing the left kidney of C57BL/6(B6) mice (−2 weeks: −2 w), a group administered Risperidone aqueous solution as a DAO inhibitor in drinking water (n=3 to 7) and a group administered water as drinking water (n=9 to 11) as a control were administered streptozotocin (STZ) at 50 mg/kg (0) weeks) to create carbohydrate metabolism-modified model mice, and insulin tolerance testing (−1 weeks, 2 weeks), intra-peritoneal glucose tolerance testing (−1 weeks), casual blood glucose measurement (−1 weeks, 2 weeks, 6 weeks) and fasting blood glucose measurement (−1 weeks, 2 weeks) were conducted as appropriate.
(§2) After removing the left kidney of C57BL/6(B6) mice (−2 weeks: −2 w), a group administered an aqueous solution of 20 mM D-alanine (n=5 to 8), 80 mM D-alanine (n=3 to 4), 20 mM D-serine (n=6 to 7) or 80 mM D-serine (n=4) as drinking water, and a group administered water as drinking water as a control (n=8) were administered streptozotocin (STZ) at 50 mg/kg (0 weeks) to create carbohydrate metabolism-modified model mice, and insulin tolerance testing (−1 weeks, 2 weeks), casual blood glucose measurement (0 weeks to 18 weeks), fasting blood glucose measurement (0 weeks to 16 weeks) and systolic/diastolic blood pressure measurement (−1 weeks to 18 weeks) were conducted as appropriate.

[5] = test system: carbohydrate metabolism-modified mice (type 1 diabetes model); assay: systolic/diastolic blood pressure measurement; conditions: 80 mM in drinking water; 10 weeks after STZ; vs B6 group
Procedure: as §2

[6] = test system: carbohydrate metabolism-modified mice (type 1 diabetes model); assay: intra-peritoneal glucose tolerance testing (IPGTT); conditions: Risperidone in drinking water; B6 mice, -1 weeks; vs water control
Procedure: as §1

[7] = test system: carbohydrate metabolism-modified mice (type 1 diabetes model); assay: death during D-amino acid administration in drinking water; conditions: 80 mM in drinking water (n=4); within 18 weeks
Procedure: as §2

[8] = 20 mM or 80 mM in drinking water, dose-dependent, after STZ (0 to 16 weeks)
[9] = 20 mM or 80 mM in drinking water, dose-dependent, after STZ (0 to 18 weeks)

Row | SMILES | increase in casual blood glucose level [1] | casual blood glucose level [2] | fasting blood glucose level [3, 8] | blood glucose level and insulin resistance in insulin tolerance testing (ITT) [4] | casual blood glucose level [1, 9] | diastolic pressure [5] | systolic pressure [5] | fasting blood glucose level ([3]; Risperidone in drinking water, after STZ (2 weeks)) | blood glucose level in intra-peritoneal glucose tolerance testing (IPGTT) [6] | blood glucose level in insulin tolerance testing (ITT) ([4]; Risperidone aqueous solution in drinking water, left kidney removed, STZ 50 mg/kg B6 mice) | casual blood glucose level ([1]; Risperidone in drinking water, after STZ (2, 6 weeks)) | death of animals (toxicity) [7]
1 | CC(C)C[C@@H](N)C(=O)O [D-leucine] | suppressed | – | – | – | – | – | – | – | – | – | – | –
2 | C[C@@H](N)C(=O)O [D-alanine] | suppressed | lower levels | remained at a low levels | lower blood glucose levels and lower insulin resistance compared to the control group | remained at a low levels | lowered | lowered | – | – | – | – | –
3 | Cc1nc2n(c(=O)c1CCN1CCC(c3noc4cc(F)ccc34)CC1)CCCC2 [Risperidone, reference compound] | – | – | – | – | – | – | – | remained at low levels in the Risperidone group compared to the control | lower values for blood glucose level than the control group | lower blood glucose levels compared to the control group | remained at low levels in the Risperidone group compared to the control group | –
4 | N[C@H](CO)C(=O)O [D-serine] | suppressed | – | remained at a low levels | lower blood glucose levels and lower insulin resistance compared to the control group | remained at a low levels | – | – | – | – | – | – | one individual died within 18 weeks
